Measurements reported in PubChem BioAssay AID248 (DTP/NCI, 2004).
Inconclusive results and toxic doses are left out. Cut-off read from the data, not from the text of the source: active = T/C of 150% or more; inactive = T/C below 125%.

Tested on: L1210 leukemia ip in BDF1 mice, survival T/C
Experiment: NCI In Vivo Anticancer Drug Screen. Data for tumor model L1210 Leukemia (intraperitoneal) in B6D2F1 (BDF1) mice
Details: endpoint: mean survival time, higher = longer survival
Method in brief: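 In this screen, tumor-bearing mice given compound are compared to those given vehicle, and their survival values are reported as a treated-to-control quotient.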

[1] = dose: 50.0 mg/kg/injection, schedule: Q01DX001 (ip), vehicle: Klucel (hydroxypropylcellulose) (HPC)
[2] = dose: 100.0 mg/kg/injection, schedule: Q01DX001 (ip), vehicle: Klucel (hydroxypropylcellulose) (HPC)
[3] = dose: 100.0 mg/kg/injection, schedule: Q04DX003 (ip), vehicle: saline with Tween-80
[4] = dose: 200.0 mg/kg/injection, schedule: Q04DX003 (ip), vehicle: saline with Tween-80
[5] = dose: 400.0 mg/kg/injection, schedule: Q04DX003 (ip), vehicle: saline with Tween-80
[6] = dose: 100.0 mg/kg/injection, schedule: Q01DX001 (ip), vehicle: carboxymethylcellulose (CMC)
[7] = dose: 200.0 mg/kg/injection, schedule: Q01DX001 (ip), vehicle: carboxymethylcellulose (CMC)
[8] = dose: 400.0 mg/kg/injection, schedule: Q01DX001 (ip), vehicle: carboxymethylcellulose (CMC)
[9] = dose: 100.0 mg/kg/injection, schedule: Q01DX001 (ip), vehicle: saline
[10] = dose: 200.0 mg/kg/injection, schedule: Q01DX001 (ip), vehicle: saline
[11] = dose: 100.0 mg/kg/injection, schedule: Q01DX009 (ip), vehicle: saline
[12] = dose: 200.0 mg/kg/injection, schedule: Q01DX009 (ip), vehicle: saline
[13] = dose: 50.0 mg/kg/injection, schedule: Q01DX001 (ip), vehicle: carboxymethylcellulose (CMC)
[14] = dose: 200.0 mg/kg/injection, schedule: Q01DX001 (ip), vehicle: Klucel (hydroxypropylcellulose) (HPC)
[15] = dose: 400.0 mg/kg/injection, schedule: Q01DX001 (ip), vehicle: Klucel (hydroxypropylcellulose) (HPC)

Measured: T/C

COc1ccc(/C=N\NC(=O)N/N=C/c2ccc(OC)c(OC)c2)cc1OC
inactive: [1] 90 % of control | [2] 95 % of control

Cc1cccc(NC(=O)c2c(Br)c(Br)c(Br)c(Br)c2C(=O)O)c1C
inactive: dose: 100.0 mg/kg/injection, schedule: Q01DX009 (ip), vehicle: Klucel (hydroxypropylcellulose) (HPC) 100 % of control | dose: 200.0 mg/kg/injection, schedule: Q01DX009 (ip), vehicle: Klucel (hydroxypropylcellulose) (HPC) 103 % of control

CCOC(=O)CC(C)(O)C1CC1 (stereo not given)
inactive: [3] 98 % of control | [4] 96 % of control | [5] 98 % of control

O=[N+]([O-])c1cncn1CCN1CCOCC1
inactive: [6] 88 % of control | [7] 88 % of control | [8] 94 % of control

Nc1nc2c(c(-c3ccc(Cl)cc3)n1)CN(CCCC(=O)O)C2=O
inactive: [9] 105 % of control | dose: 100.0 mg/kg/injection, schedule: Q04DX003 (ip), vehicle: saline 96 % of control | [10] 98 % of control | dose: 200.0 mg/kg/injection, schedule: Q04DX003 (ip), vehicle: saline 104 % of control | dose: 400.0 mg/kg/injection, schedule: Q01DX001 (ip), vehicle: saline 100 % of control | dose: 400.0 mg/kg/injection, schedule: Q04DX003 (ip), vehicle: saline 107 % of control

O=C1OC2CCCCC2/C1=C/OS(=O)(=O)C(F)(F)F (stereo not given)
inactive: dose: 12.5 mg/kg/injection, schedule: Q01DX009 (ip), vehicle: DMSO 105 % of control | dose: 25.0 mg/kg/injection, schedule: Q01DX009 (ip), vehicle: DMSO 103 % of control | dose: 50.0 mg/kg/injection, schedule: Q01DX009 (ip), vehicle: DMSO 110 % of control | dose: 100.0 mg/kg/injection, schedule: Q01DX009 (ip), vehicle: DMSO 110 % of control | dose: 200.0 mg/kg/injection, schedule: Q01DX009 (ip), vehicle: DMSO 117 % of control

NN=C1c2ccccc2C(F)(F)c2ccccc21
inactive: [1] 95 % of control | [2] 95 % of control

COc1cccc(/C(C)=N\NC(=O)c2ccccc2)c1
inactive: dose: 25.0 mg/kg/injection, schedule: Q04DX003 (ip), vehicle: saline with Tween-80 88 % of control | dose: 50.0 mg/kg/injection, schedule: Q04DX003 (ip), vehicle: saline with Tween-80 90 % of control | [3] 92 % of control

CC1=CC(=O)C(c2ccc(O)cc2O)=CC1=O
inactive: dose: 75.0 mg/kg/injection, schedule: Q01DX001 (ip), vehicle: other 101 % of control

CC(C)(C)S/C=C/C(N)=O
inactive: dose: 50.0 mg/kg/injection, schedule: Q01DX009 (ip), vehicle: saline 98 % of control | [9] 91 % of control | [11] 96 % of control | [10] 93 % of control | [12] 94 % of control

CN1c2ccccc2Sc2ccccc21
inactive: [13] 94 % of control | [6] 96 % of control | [7] 107 % of control

Clc1cccc(-c2nc3ccccc3c3ccccc23)c1
inactive: dose: 100.0 mg/kg/injection, schedule: Q01DX009 (ip), vehicle: saline with Tween-80 90 % of control | dose: 200.0 mg/kg/injection, schedule: Q01DX009 (ip), vehicle: saline with Tween-80 100 % of control | dose: 400.0 mg/kg/injection, schedule: Q01DX009 (ip), vehicle: saline with Tween-80 103 % of control

Nc1cccc(/C=C/c2ccc([N+](=O)[O-])cc2)c1
inactive: [2] 91 % of control | [14] 87 % of control | [15] 94 % of control

C=CS(=O)(=O)c1ccc2ccccc2c1
inactive: dose: 10.0 mg/kg/injection, schedule: Q04DX002 (ip), vehicle: Klucel (hydroxypropylcellulose) (HPC) 118 % of control | dose: 20.0 mg/kg/injection, schedule: Q04DX002 (ip), vehicle: Klucel (hydroxypropylcellulose) (HPC) 96 % of control | dose: 40.0 mg/kg/injection, schedule: Q04DX002 (ip), vehicle: Klucel (hydroxypropylcellulose) (HPC) 100 % of control

c1ccc(CNc2ncnc3c2ncn3Cc2ccccc2)cc1
inactive: [2] 94 % of control | [14] 104 % of control | [15] 98 % of control

O=C(NCCCl)NC1CCCCC1O (stereo not given)
inactive: dose: 100.0 mg/kg/injection, schedule: Q04DX002 (ip), vehicle: saline 98 % of control | dose: 200.0 mg/kg/injection, schedule: Q04DX002 (ip), vehicle: saline 91 % of control | dose: 400.0 mg/kg/injection, schedule: Q04DX002 (ip), vehicle: saline 102 % of control

OCCN=C1c2cc(Cl)ccc2-c2c(Cl)cc(Cl)cc21
inactive: dose: 100.0 mg/kg/injection, schedule: Q04DX003 (ip), vehicle: Klucel (hydroxypropylcellulose) (HPC) 103 % of control | dose: 200.0 mg/kg/injection, schedule: Q04DX003 (ip), vehicle: Klucel (hydroxypropylcellulose) (HPC) 97 % of control | dose: 400.0 mg/kg/injection, schedule: Q04DX003 (ip), vehicle: Klucel (hydroxypropylcellulose) (HPC) 87 % of control

CCN(CC)C(=O)O/N=C(/C)c1ccccc1
inactive: dose: 100.0 mg/kg/injection, schedule: Q01DX001 (ip), vehicle: other 96 % of control | dose: 200.0 mg/kg/injection, schedule: Q01DX001 (ip), vehicle: other 91 % of control

O=C(O)COc1cc(Cl)c(Cl)cc1Cl
inactive: [13] 102 % of control | [6] 106 % of control | [3] 100 % of control | [7] 112 % of control | [4] 103 % of control | [8] 108 % of control | [5] 100 % of control

CC(Br)C(Br)CO (stereo not given)
inactive: [11] 103 % of control | [12] 102 % of control | dose: 400.0 mg/kg/injection, schedule: Q01DX009 (ip), vehicle: saline 100 % of control

Cn1c(=O)n(C)c2nccnc21
inactive: dose: 12.5 mg/kg/injection, schedule: Q04DX002 (ip), vehicle: saline 108 % of control | dose: 25.0 mg/kg/injection, schedule: Q04DX002 (ip), vehicle: saline 105 % of control | dose: 50.0 mg/kg/injection, schedule: Q04DX002 (ip), vehicle: saline 94 % of control

O=C(OC1OCC(OCc2ccccc2)C(OCc2ccccc2)C1OCc1ccccc1)c1ccccc1 (stereo not given)
inactive: [3] 94 % of control | [4] 94 % of control | [5] 91 % of control

COc1ccc(C2CC(=O)OC(=O)C2)cc1
inactive: dose: 25.6 mg/kg/injection, schedule: Q04DX002 (ip), vehicle: saline with Tween-80 101 % of control | dose: 64.0 mg/kg/injection, schedule: Q04DX002 (ip), vehicle: saline with Tween-80 101 % of control | dose: 160.0 mg/kg/injection, schedule: Q04DX002 (ip), vehicle: saline with Tween-80 101 % of control | [4] 97 % of control | dose: 400.0 mg/kg/injection, schedule: Q04DX002 (ip), vehicle: saline with Tween-80 95 % of control | [5] 92 % of control

Nc1ccnc(SCCCCc2ccccc2)n1
inactive: dose: 100.0 mg/kg/injection, schedule: Q04DX003 (ip), vehicle: gum acacia 90 % of control | dose: 200.0 mg/kg/injection, schedule: Q04DX003 (ip), vehicle: gum acacia 93 % of control | dose: 400.0 mg/kg/injection, schedule: Q04DX003 (ip), vehicle: gum acacia 90 % of control
